{"source": "patent US20260294922A1", "about": "“Inhibitors of JUN N-Terminal Kinases (JNK1, JNK2, and/or JNK3) and Mitogen-Activated Protein Kinases (MAPK8, MAPK9, and/or MAPK10) and Methods of Using Same” (Baylor College of Medicine, priority 2023, published 2026)", "key": {"JNK1": {"molecular_target": "JNK1 (Homo sapiens, UniProt P45983)", "sequence (P45983 whole entry)": "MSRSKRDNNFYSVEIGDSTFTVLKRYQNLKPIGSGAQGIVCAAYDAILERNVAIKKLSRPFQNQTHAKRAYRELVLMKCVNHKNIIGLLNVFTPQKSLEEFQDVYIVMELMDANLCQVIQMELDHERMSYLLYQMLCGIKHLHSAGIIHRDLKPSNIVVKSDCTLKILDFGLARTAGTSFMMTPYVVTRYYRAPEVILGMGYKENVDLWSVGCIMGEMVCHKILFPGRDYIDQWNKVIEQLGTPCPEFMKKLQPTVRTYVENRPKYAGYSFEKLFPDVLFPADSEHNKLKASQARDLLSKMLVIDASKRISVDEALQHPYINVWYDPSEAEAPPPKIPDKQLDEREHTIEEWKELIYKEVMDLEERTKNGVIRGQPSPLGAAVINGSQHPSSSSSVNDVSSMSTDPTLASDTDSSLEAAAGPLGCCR", "test": "ThermoFisher SelectScreen, JNK1", "assay_type": "binding"}, "ERK2": {"molecular_target": "T1, ERK2 (Homo sapiens, UniProt P28482)", "T1 construct": "purchased ThermoFisher (SelectScreen, outsourced service)", "T1 sequence (P28482 whole entry)": "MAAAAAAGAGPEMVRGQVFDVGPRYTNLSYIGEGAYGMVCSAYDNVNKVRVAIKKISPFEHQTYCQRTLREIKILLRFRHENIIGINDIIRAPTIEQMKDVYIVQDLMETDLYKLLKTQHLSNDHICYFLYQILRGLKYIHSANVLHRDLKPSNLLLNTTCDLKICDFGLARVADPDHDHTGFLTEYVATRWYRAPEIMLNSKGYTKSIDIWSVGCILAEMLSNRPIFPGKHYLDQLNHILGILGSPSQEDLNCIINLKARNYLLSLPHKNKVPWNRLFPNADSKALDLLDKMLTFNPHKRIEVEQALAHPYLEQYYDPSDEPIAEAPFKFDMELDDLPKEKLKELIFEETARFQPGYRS", "test": "ThermoFisher SelectScreen, ERK2", "assay_type": "binding"}, "[1]": {"test": "Pharmacokinetics after oral administration in mice", "assay_type": "in vivo", "conditions": "mouse, 50 mg/kg, plasma", "excerpt": "(§1) Based on stability and estimated half-life of compounds exposed to liver microsome in vitro, CDD-2728 was selected for PK evaluation."}, "[2]": {"test": "Pharmacokinetics after intraperitoneal administration in mice", "assay_type": "in vivo", "conditions": "mouse, ip, 50 mg/kg, plasma", "excerpt": "as §1"}, "[3]": {"test": "Plasma ALT and AST after oral administration", "assay_type": "in vivo, mouse", "conditions": "24 h post-dose, individual mice 1-4"}, "[4]": {"test": "Plasma ALT and AST after intraperitoneal administration", "assay_type": "in vivo, mouse", "conditions": "24 h post-dose, individual mice 1-3"}, "[5]": {"test_system": "12Z endometriotic epithelial cells", "test": "IL-1β-stimulated pro-inflammatory gene expression (qPCR) in 12Z cells", "assay_type": "cell-based, human", "conditions": "relative to bentamapimod", "excerpt": "These studies indicate that NanoBRET assays are an innovative technical platform to measure target engagement of CDD JNK inhibitors with the target JNK1, JNK2 or JNK3. As further evidence that JNK inhibitors address disease-relevant endpoints, biological responses of JNK inhibitors are provided herein, as measured in target tissue cellular models. 12Z immortalized endometriotic epithelial cells and patient-derived endometriotic stromal cells have been cultured with reference compound bentamapimod, CDD-2628, and CDD-2728. To exemplify the effects of CDD-2628 and CDD-2728 in the endometrial cell cultures, gene expression was measured using qPCR (expressed as fold-change relative to GAPDH, a housekeeping gene that is not affected by culture treatment effects) that reflect synthesis of inflammatory lipids (PTGS2), transformation of cells to a more migration and invasive potential (MMP-3) and chemoattractant cytokines to recruit pro-inflammatory immune cells (IL-6, IL-8).\nIn the culture systems employed in FIGS. 12A-12J, FIGS. 13A-13B, FIGS. 14A-14H, FIGS. 15A-15H, and FIGS. 16A-16F, the treatment of cells with IL-1β is used to mimic the peritoneal environment where IL-1β is most frequently measured at higher concentrations in patients with endometriosis (0.1 ng/mL-1 ng/mL) than in unaffected women (<0.01 ng/mL). The use of IL-1β to mimic the pro-inflammatory environment is a common method in cellular assays for endometriosis research. Although the concentrations of IL-1β in these cell cultures are higher than measured in peritoneal fluid, there are multiple other pro-inflammatory cytokines in peritoneal fluid that contribute to the pro-inflammatory environment.\nSpecifically, 12Z cells were plated at a density of 1×10^5 cells/well in a 12-well tissue culture plate, serum-starved overnight (17-18 h), pre-treated with vehicle (DMSO) or JNK inhibitor for 30 minutes, then stimulated with 10 ng/ml IL-1β in the presence or absence of the JNK inhibitors for 6 hours. After the 6-hour treatment, mRNA was extracted from the cells using the Qiagen RNEasy mini isolation kit and […] of mRNA was reverse transcribed into cDNA using the qScript cDNA Supermix (Quanta Biosciences). cDNA was amplified using SYBR Green Master Mix (Applied Biosystems) with quantitative Real Time PCR (BioRad CFX) using pre-designed and validated primers specific for genes encoding IL6, IL8, PTGS2/COX2, and MMP3 (BioRad). Relative quantification of these specific genes was calculated by the ΔΔCt method, normalizing their abundance relative to the internal housekeeping gene, GAPDH, followed by quantification relative to the vehicle-treated cells. Statistical analyses and visualizations were performed using a One Way ANOVA with a Tukey's multiple comparison post-hoc test on GraphPad Prism version 9."}, "[6]": {"test_system": "human endometriotic stromal cells (patient 143)", "test": "IL-1β-stimulated pro-inflammatory gene expression in primary endometriotic stromal cells, patient 143", "assay_type": "cell-based", "conditions": "patient 143, relative to CDD-939", "excerpt": "Similar to patient “50”, lower concentrations of CDD-2728 were required to reduce the proinflammatory response of IL-1β in stromal cells on these measured genes than in 12Z epithelial cells.\nTo confirm and further support the results described herein, endometriotic stromal cell cultures were established from a second patient. For compliance purposes, this set of cell culture results are identified as Eosis143. These are stromal cells obtained from the lining of an ovarian endometrioma cyst wall."}, "endometriotic lesions [7]": {"test_system": "endometriotic lesions", "test": "Mouse model of induced endometriosis", "conditions": "14 days of treatment", "experimental": "FIG. 22A presents the design of an in vivo model in which JNK-I were evaluated for their ability to cause regression of endometriosis in mice. […] In this experimental design, endometriosis is induced by introducing isolated endometrial tissues from a donor mouse, and the prepared endometrial cells are introduced into the peritoneal cavity of recipient mice. Fourteen (14) days after induction of endometriosis, drug treatments are initiated and continued for 14 days. At the end of study (i.e., 28 days) the presence of endometriosis lesions are determined and various measurements performed."}, "endometriotic lesions [8]": {"test_system": "endometriotic lesions", "test": "Immunofluorescent staining of endometriotic lesions from treated mice", "assay_type": "in vivo", "conditions": "14 days, intraperitoneal", "excerpt": "FIG. 23 depicts immunofluorescent staining of sections of remaining endometriotic lesions following 14 days of treatment with CDD-2728 or with a vehicle solution (i.e., Captisol) by intraperitoneal administration.\nThis illustrates a common mechanism of JNK-I from the chemical series of the disclosure and their ability to target endometriotic lesions, and the innate immune cells that drive an inflammatory response within the lesions."}, "pSer63 and pSer73 Jun": {"test_system": "pSer63 and pSer73 Jun", "test": "In-cell Western blot of Jun phosphorylation", "assay_type": "cell-based", "conditions": "0.1, 1 and 10 μM", "experimental": "The top section of the in-cell Western is pSer73 and the lower section is pSer63. Experiments were performed in triplicate for 3 concentrations (0.1 μM, 1 μM, and 10 μM) FIGS. 27B-27C: graphical summary of the in-cell Western blot is provided for pSer73 (FIG. 27B) and pSer63 (FIG. 27C)."}, "12Z cells": {"test_system": "12Z cells", "test": "Phosphorylation of Jun and JNK in IL-1β-treated 12Z cells", "assay_type": "cell-based, human"}}, "note": "Values joined by “and” are separate entries in the source; they are usually repeats but may differ in a detail not shown here. Equal values may be shown once. “Also recorded” adds a separate entry of the source."}
{"compound": "CN(C)C(=O)c1cc(NC(=O)c2cc3c(-c4cnc5[nH]ccc5c4)cccc3s2)ccc1O", "note": "[CDD-2728, N-(3-(dimethylcarbamoyl)-4-hydroxyphenyl)-4-(1H-pyrrolo[2,3-b]pyridin-5-yl)benzo[b]thiophene-2-carboxamide]", "values": [{"measurement": "Kd", "setting": "JNK1", "value": 1, "unit": "nM"}, {"measurement": "Kd", "setting": "ERK2", "value": 534, "unit": "nM"}, {"measurement": "AUC(0-inf)", "setting": "[1]", "value": "3.03 ± 0.98", "unit": "µM·h"}, {"measurement": "AUC(0-t)", "setting": "[1]", "value": "2.95 ± 0.95", "unit": "µM·h"}, {"measurement": "CL/F", "setting": "[1]", "value": 650, "unit": "mL/min/kg"}, {"measurement": "Cmax", "setting": "[1]", "value": "1510 ± 530", "unit": "nM"}, {"measurement": "Tmax", "setting": "[1]", "value": "0.63 ± 0.25", "unit": "h"}, {"measurement": "half-life", "setting": "[1]", "value": "1.48 ± 0.32", "unit": "h"}, {"measurement": "MRT last", "setting": "[1]; read-out: MRT0-t", "value": "1.7 ± 0.34", "unit": "h"}, {"measurement": "MRT inf", "setting": "[1]; read-out: MRT0-∞", "value": "1.91 ± 0.44", "unit": "h"}, {"measurement": "AUC(0-inf)", "setting": "[2]", "value": "8.03 ± 2.52", "unit": "µM·h"}, {"measurement": "AUC(0-t)", "setting": "[2]", "value": "5.7 ± 2.53", "unit": "µM·h"}, {"measurement": "CL/F", "setting": "[2]", "value": 245, "unit": "mL/min/kg"}, {"measurement": "Cmax", "setting": "[2]", "value": "440 ± 190", "unit": "nM"}, {"measurement": "Tmax", "setting": "[2]", "value": "3 ± 1.15", "unit": "h"}, {"measurement": "MRT last", "setting": "[2]; read-out: MRT0-t", "value": "8.57 ± 1.33", "unit": "h"}, {"measurement": "MRT inf", "setting": "[2]; read-out: MRT0-∞", "value": "20.5 ± 13", "unit": "h"}, {"measurement": "half-life", "setting": "[2]; read-out: T1/2 (converted)", "value": "14.2 ± 8.92", "unit": "h"}, {"measurement": "half-life", "setting": "[2]; read-out: half-life, injected into the peritoneal cavity (converted)", "value": 14, "unit": "h"}, {"measurement": "ALT", "setting": "[3]", "value": "43.49 IU/L and 21.92 IU/L and 36.24 IU/L and 30.94 IU/L"}, {"measurement": "AST", "setting": "[3]", "value": "69.13 IU/L and 76.02 IU/L and 61.79 IU/L and 41.64 IU/L"}, {"measurement": "ALT", "setting": "[4]", "value": "87.34 IU/L and 29.17 IU/L and 23.07 IU/L"}, {"measurement": "AST", "setting": "[4]", "value": "78.94 IU/L and 38.37 IU/L and 35.80 IU/L"}, {"measurement": "IL-6 expression", "setting": "[5]", "value": "equally effective"}, {"measurement": "IL-8 expression", "setting": "[5]", "value": "more potent inhibitors of IL-8 expression than bentamapimod; also recorded: effectively suppressed IL-8 production"}, {"measurement": "MMP-3 expression", "setting": "[5]", "value": "more potent than CDD-939 at inhibiting MMP-3 expression; also recorded: more effective than bentamapimod"}, {"measurement": "PTGS2 expression", "setting": "[5]", "value": "more effective than bentamapimod"}, {"measurement": "inhibition of IL-6, IL-8, MMP-3 and PTGS2 gene expression", "setting": "[6]", "value": "at lower doses than was required for inhibition of expression of these genes by CDD-939; also recorded: superior to bentamapimod in efficacy of suppression and potency"}, {"measurement": "impact on uterine, liver or kidney weight / other tissues", "setting": "endometriotic lesions [7]", "value": "no impact"}, {"measurement": "CD31 (endothelial cells, angiogenesis)", "setting": "endometriotic lesions [8]", "value": "reduces the presence of cells corresponding to leukocytes, platelets, and endothelial cells (CD31); also recorded: angiogenesis (anti-CD31 antibody)"}, {"measurement": "macrophage infiltration (F4/80)", "setting": "endometriotic lesions [8]", "value": "decreases infiltration of endometriotic lesions by macrophages (F4/80)"}, {"measurement": "proliferation of lesions (Ki67)", "setting": "endometriotic lesions [8]", "value": "reduced rates of proliferative cell growth; also recorded: reduced cellular proliferation"}, {"measurement": "Jun phosphorylation (pSer73, pSer63), relative to Tanzisertib", "setting": "pSer63 and pSer73 Jun", "value": "more effective inhibitors of Jun phosphorylation than Tanzisertib"}, {"measurement": "phosphorylation of JNK1 or JNK2", "setting": "12Z cells", "value": "undetectable changes"}, {"measurement": "phosphorylation of Jun relative to total Jun", "setting": "12Z cells; relative to bentamapimod", "value": "superior efficacy"}]}
